Common to all, as to assay: IC50 determination, biochemical kinase assay
One assay concerns the target T1, SGK1 (Homo sapiens, UniProt O00141, S422D).
T1 sequence (O00141 60-431 S422D limits assumed): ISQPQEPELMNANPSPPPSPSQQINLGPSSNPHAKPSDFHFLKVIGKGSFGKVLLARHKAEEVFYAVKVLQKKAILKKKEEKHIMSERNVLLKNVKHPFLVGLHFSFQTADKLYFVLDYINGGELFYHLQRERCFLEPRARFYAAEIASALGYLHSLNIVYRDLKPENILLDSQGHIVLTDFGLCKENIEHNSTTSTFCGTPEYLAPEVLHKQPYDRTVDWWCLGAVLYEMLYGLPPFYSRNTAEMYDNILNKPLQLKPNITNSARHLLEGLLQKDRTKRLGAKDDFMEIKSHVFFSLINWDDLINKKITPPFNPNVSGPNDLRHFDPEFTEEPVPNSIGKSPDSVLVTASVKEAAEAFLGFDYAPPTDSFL
Conditions: not in the presence of VHL.

The target in another assay is S6K1 (Homo sapiens, UniProt P23443, T412E). The note with it: for IC50: not in the presence of VHL. The method, then:
(§1) IC50 determination was performed at the MRC PPU International Centre for Protein Kinase Profiling, according to the protocol previously described[47],[48]

A further assay addresses T2, SGK3 (Homo sapiens, UniProt Q96BR1).
T2 sequence (Q96BR1 1-496): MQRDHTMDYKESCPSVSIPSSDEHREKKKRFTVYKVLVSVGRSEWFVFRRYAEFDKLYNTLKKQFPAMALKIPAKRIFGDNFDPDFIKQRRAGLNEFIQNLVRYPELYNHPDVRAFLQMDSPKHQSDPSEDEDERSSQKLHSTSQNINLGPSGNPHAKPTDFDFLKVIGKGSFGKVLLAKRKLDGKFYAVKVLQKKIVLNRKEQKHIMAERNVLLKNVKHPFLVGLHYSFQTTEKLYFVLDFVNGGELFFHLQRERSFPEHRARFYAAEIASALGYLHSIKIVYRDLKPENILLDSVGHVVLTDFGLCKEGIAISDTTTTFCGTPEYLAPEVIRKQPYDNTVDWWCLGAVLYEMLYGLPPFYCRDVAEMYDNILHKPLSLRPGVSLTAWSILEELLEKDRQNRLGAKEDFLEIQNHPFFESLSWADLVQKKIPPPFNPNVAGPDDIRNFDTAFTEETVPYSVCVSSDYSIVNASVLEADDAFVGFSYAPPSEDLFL
The note with it: not in the presence of VHL. The method, then:
as §1

The structures appear in SMILES notation. Bounds are passed on as bounds.

S6K1, sequence (P23443 1-421 T412E limits assumed): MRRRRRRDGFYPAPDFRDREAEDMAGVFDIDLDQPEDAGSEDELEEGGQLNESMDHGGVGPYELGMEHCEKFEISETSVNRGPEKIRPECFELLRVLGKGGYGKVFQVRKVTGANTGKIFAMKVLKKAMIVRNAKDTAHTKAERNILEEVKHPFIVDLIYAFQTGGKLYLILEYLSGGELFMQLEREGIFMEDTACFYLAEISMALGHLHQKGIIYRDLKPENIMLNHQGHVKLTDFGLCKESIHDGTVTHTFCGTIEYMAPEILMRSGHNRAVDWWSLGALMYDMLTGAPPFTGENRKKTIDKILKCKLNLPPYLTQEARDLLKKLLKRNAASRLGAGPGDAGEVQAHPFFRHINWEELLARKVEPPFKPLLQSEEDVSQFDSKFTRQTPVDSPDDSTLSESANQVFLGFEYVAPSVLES

In the case of `COc1ccc(Cl)c(S(=O)(=O)Nc2ccc(-c3nc(OC[C@H]4CNCCO4)c4c(C)n[nH]c4n3)cc2)c1` [290-R, reference compound], the IC50 at SGK1 is 19 nM; at S6K1 it was 10 nM; at SGK3, 35 nM.
As for `Cc1ccc(F)c(S(=O)(=O)Nc2ccc(-c3nc(OC[C@H]4CNCCO4)c4cn[nH]c4n3)cc2)c1` [308-R, reference compound], the IC50 at S6K1 came out at 1 nM; on SGK3 it was 5 nM.
As for `Cc1ccc(F)c(S(=O)(=O)Nc2ccc(-c3nc(OC[C@H]4CN(CCOCCOCCOCC(=O)N[C@H](C(=O)N5C[C@H](O)C[C@H]5C(=O)NCc5ccc(-c6scnc6C)cc5)C(C)(C)C)CCO4)c4cn[nH]c4n3)cc2)c1` [DAT1], the IC50 on SGK1 amounted to 1600 nM; at S6K1 it was 160 nM; at SGK3, 440 nM.
Consider `Cc1ccc(F)c(S(=O)(=O)Nc2ccc(-c3nc(OC[C@H]4CN(CCOCCOCC(=O)N[C@H](C(=O)N5C[C@H](O)C[C@H]5C(=O)NCc5ccc(-c6scnc6C)cc5)C(C)(C)C)CCO4)c4cn[nH]c4n3)cc2)c1` [DAT5], for which the IC50 on SGK1, at S6K1 and at SGK3 was > 10000 nM in each case.
On to `Cc1ccc(F)c(S(=O)(=O)Nc2ccc(-c3nc(OC[C@H]4CN(CCOCCOCCOCCOCC(=O)N[C@H](C(=O)N5C[C@H](O)C[C@H]5C(=O)NCc5ccc(-c6scnc6C)cc5)C(C)(C)C)CCO4)c4cn[nH]c4n3)cc2)c1` [DAT6], for which the half-inhibitory concentration (IC50) on SGK1, on S6K1 and on SGK3 was > 10000 nM throughout.
Regarding `Cc1ccc(F)c(S(=O)(=O)Nc2ccc(-c3nc(OC[C@H]4CN(CCOCCOCCOCCOCCOCC(=O)N[C@H](C(=O)N5C[C@H](O)C[C@H]5C(=O)NCc5ccc(-c6scnc6C)cc5)C(C)(C)C)CCO4)c4cn[nH]c4n3)cc2)c1` [DAT7], the IC50 at SGK1, on S6K1 and on SGK3 was > 10000 nM throughout.
For the molecule `Cc1ccc(F)c(S(=O)(=O)Nc2ccc(-c3nc(OC[C@H]4CN(CCCCCCOCCCCCCOCC(=O)N[C@H](C(=O)N5C[C@H](O)C[C@H]5C(=O)NCc5ccc(-c6scnc6C)cc5)C(C)(C)C)CCO4)c4cn[nH]c4n3)cc2)c1` [DAT10], the IC50 on SGK1, on S6K1 and on SGK3 was > 10000 nM each time.
Turning to `COc1ccc(Cl)c(S(=O)(=O)Nc2ccc(-c3nc(OC[C@H]4CN(CCCCCCOCCOCCOCCOCC(=O)N[C@H](C(=O)N5C[C@H](O)C[C@H]5C(=O)NCc5ccc(-c6scnc6C)cc5)C(C)(C)C)CCO4)c4c(C)n[nH]c4n3)cc2)c1` [DAT11], the IC50 is 1340 nM at SGK1, 1800 nM on S6K1 and 730 nM on SGK3.
As for `Cc1ccc(F)c(S(=O)(=O)Nc2ccc(-c3nc(OC[C@H]4CN(CCCCCCOCCOCCOCC(=O)N[C@H](C(=O)N5C[C@H](O)C[C@H]5C(=O)NCc5ccc(-c6scnc6C)cc5)C(C)(C)C)CCO4)c4cn[nH]c4n3)cc2)c1` [SGK3-PROTAC1], the results for the IC50 on SGK1 and on S6K1 were 220 nM and 1800 nM, respectively. For the same molecule, the “increase of IC50 against S6K1 relative to DAT1” value at S6K1 (0.16 μM to 1.8 μM) is given as “approximately 10 fold”.
Take `Cc1ccc(F)c(S(=O)(=O)Nc2ccc(-c3nc(OC[C@H]4CN(CCCCCCOCCOCCOCC(=O)N[C@H](C(=O)N5C[C@@H](O)C[C@H]5C(=O)NCc5ccc(-c6scnc6C)cc5)C(C)(C)C)CCO4)c4cn[nH]c4n3)cc2)c1` [cisSGK3-PROTAC1]: the IC50 on SGK1 turned out to be 1400 nM; at S6K1, 1700 nM.
